PMC11776921 (Journal of chemical theory and computation, 2024)

Target: GSK-3β (Homo sapiens, UniProt P49841)
Experiment: GSK-3 kinase Z'LYTE assay
Type: biochemical
Conditions: COB-136 versus COB-187; nitrogen in the pyridine ring replaced by carbon

Sequence of GSK-3β (P49841 whole entry): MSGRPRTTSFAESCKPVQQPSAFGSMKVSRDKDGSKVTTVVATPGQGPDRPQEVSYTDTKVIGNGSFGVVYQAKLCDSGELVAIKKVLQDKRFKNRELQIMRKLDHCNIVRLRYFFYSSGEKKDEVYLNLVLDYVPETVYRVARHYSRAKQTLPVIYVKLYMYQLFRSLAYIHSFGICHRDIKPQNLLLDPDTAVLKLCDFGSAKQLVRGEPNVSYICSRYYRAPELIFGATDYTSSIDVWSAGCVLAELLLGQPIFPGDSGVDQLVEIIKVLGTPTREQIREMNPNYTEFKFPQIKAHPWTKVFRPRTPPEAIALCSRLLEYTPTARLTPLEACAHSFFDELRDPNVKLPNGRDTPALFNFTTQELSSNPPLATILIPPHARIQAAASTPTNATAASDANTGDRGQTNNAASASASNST

`OC1(c2ccccc2)CSC(=S)N1Cc1ccccc1` (stereo not shown) [COB-136] was tested, and the “inhibitory activity (in words)” value was “dramatically impairs the inhibitory activity”.
